Reference: article PMC1950228, “Organosilicon-Containing Thiazole Derivatives as Potential Lipoxygenase Inhibitors and Anti-Inflammatory Agents” (Bioinorganic Chemistry and Applications, 2007)
pIC50: −log10 of the molar value. In brackets after ≈: the same amount, converted by molar mass. Several values for one entry are separate records, joined by “and”; a condition that tells them apart may be missing. Identical values can stand only once. Entries after “also recorded” stand apart in the source; their conditions may differ. Like-named read-outs stand apart in the source and are kept apart here. Marks after values point to notes of the source that are not given here.

Assays:
[1] = tested on: carrageenin mice paw edema (CPE); assay: Carrageenin-induced mice paw edema inhibition; type: in vivo, AKR or A mice
Method: AKR or A mice (20–30 g, groups of ten) of both sexes were used. Females pregnant were excluded. A single dose of 0.2 mmol/kg body weight of compounds 12, 16, 20, 21 and 0.01 mmol/kg of compound 22 or 0.013 mmol/kg of compound 14 suspended in water with few drops of Tween 80 was administered intraperitoneally simultaneously to the intradermally injection of 0.05 mL carrageenin in the right hind paw. Indomethacin was used as a standard diluted agent.
Organosilicon-containing compounds 12, 14, 16, 20–22 were examined in vivo for their anti-inflammatory activity using the carrageenin mice paw edema (CPE) as a model of inflammation. The in vivo anti-inflammatory effects of the tested thiazole derivatives were assessed by using the functional model of carrageenin-induced […] paw edema and are presented in Table 1 as percentage of weight increase at the right hind paw in comparison to the uninjected left hind paw.

[2] = biological target: T1, soybean lipoxygenase (LOX) (Glycine max, UniProt P08170); assay: Soybean lipoxygenase inhibition (UV absorbance at 234 nm); type: biochemical; conditions: for % inhibition LOX: at 0.1 mmol
T1 sequence (P08170 1-839): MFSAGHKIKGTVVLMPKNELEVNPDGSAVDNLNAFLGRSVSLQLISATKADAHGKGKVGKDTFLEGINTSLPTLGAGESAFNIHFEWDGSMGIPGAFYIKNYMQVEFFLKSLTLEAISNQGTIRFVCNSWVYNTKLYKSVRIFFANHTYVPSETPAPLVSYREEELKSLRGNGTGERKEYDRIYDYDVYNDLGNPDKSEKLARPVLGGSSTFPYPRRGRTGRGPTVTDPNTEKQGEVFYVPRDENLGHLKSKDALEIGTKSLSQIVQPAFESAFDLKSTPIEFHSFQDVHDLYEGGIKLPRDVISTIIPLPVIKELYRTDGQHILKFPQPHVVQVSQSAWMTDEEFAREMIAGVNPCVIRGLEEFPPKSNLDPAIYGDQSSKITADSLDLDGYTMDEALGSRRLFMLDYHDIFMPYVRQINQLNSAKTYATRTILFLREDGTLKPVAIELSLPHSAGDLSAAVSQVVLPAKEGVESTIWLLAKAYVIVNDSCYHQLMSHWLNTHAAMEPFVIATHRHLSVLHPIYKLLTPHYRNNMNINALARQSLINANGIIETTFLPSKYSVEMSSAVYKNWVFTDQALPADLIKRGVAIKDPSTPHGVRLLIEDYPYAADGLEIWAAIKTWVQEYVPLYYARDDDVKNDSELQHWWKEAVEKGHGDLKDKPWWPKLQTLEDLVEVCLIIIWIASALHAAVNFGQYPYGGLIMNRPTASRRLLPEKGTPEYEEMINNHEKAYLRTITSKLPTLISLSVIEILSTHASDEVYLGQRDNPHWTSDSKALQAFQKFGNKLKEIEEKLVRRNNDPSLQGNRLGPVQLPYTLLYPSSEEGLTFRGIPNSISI
Method: The tested compounds dissolved in DMSO or ethanol (concentrations ranged from 0.1 to 1 mM) were incubated at room temperature with sodium linoleate (0.1 mmol) and 0.2 mL of enzyme solution (250 U/mL in saline).
While one may not extrapolate the quantitative results of this assay to the inhibition of mammalian 5-LOX, it has been shown that inhibition of plant lipoxygenase activity by NSAIDs is qualitatively similar to their inhibition of the rat mast cell lipoxygenase and may be used as a simple qualitative screen for such activity. […] The IC50 values for compounds 14, 16, 17, 19, and 22 were determined.

[3] = tested on: HT-1080 (human fibrosarcoma); conditions: cited from earlier work
[4] = tested on: HT-1080 (human fibrosarcoma); assay: In vitro cytotoxicity, HT-1080; type: cell-based; conditions: for CC50: Homo sapiens; for stimulation of HT-1080 cell growing: CV, at all studied concentrations; for LC50 HT-1080: human fibrosarcoma, coloration not stated
Method: (§1) Monolayer tumour cell lines MG-22A (mouse hepatoma), HT-1080 (human fibrosarcoma), and normal mouse fibroblasts (NIH 3T3) were cultivated for 72 hours in DMEM standard medium (Sigma) without an indicator and antibiotics. After the ampoule had thawed, cells from one to four passages were used in three concentrations of test compound: 1, 10 and 100 μg mL^−1. The control cells and cells with tested compounds in the range of 2–5* 10^4 cell mL^−1 concentration (depending on line nature) were placed on separate 96 wells plates. Solutions containing test compounds were diluted and added in wells to give the final concentrations. Control cells were treated in the same manner only in the absence of test compounds. Plates were cultivated for 72 hours. The number of survived cells was determined using crystal violet (CV), 3-(4,5-dimethylthiazol-2-yl)-2,5-diphenyltetrazolinium bromide (MTT), or neutral red (NR) coloration which was assayed by multiscan spectrophotometer. The quantity of alive cells on control plate was taken in calculations for 100% [22, 23]. The LC50 was calculated using Graph Pad Prism 3.0 program, r < .05. Concentration of NO was determined according to [23].

MG-22A (mouse hepatoma) [5] = assay: In vitro cytotoxicity, MG-22A; type: cell-based; conditions: for CC50: Mus musculus, MG-22A; for LC50 MG-22A: mouse hepatoma, coloration not stated
Method: as §1

[6] = In vitro cytotoxicity, NIH 3T3 (neutral red) and LD50; type: cell-based; conditions: for CC50 at 72 h: 50% cell killing, neutral red coloration, normal mouse fibroblasts, read-out: LC50 NIH 3T3 NR; for LD50: mouse, NIH 3T3, method not described
Method: The control cells and cells with tested compounds in the range of 2–5* 10^4 cell mL^−1 concentration (depending on line nature) were placed on separate 96 wells plates. […] Control cells were treated in the same manner only in the absence of test compounds. Plates were cultivated for 72 hours. The number of survived cells was determined using crystal violet (CV), 3-(4,5-dimethylthiazol-2-yl)-2,5-diphenyltetrazolinium bromide (MTT), or neutral red (NR) coloration which was assayed by multiscan spectrophotometer. The quantity of alive cells on control plate was taken in calculations for 100% [22, 23]. The LC50 was calculated using Graph Pad Prism 3.0 program, r < .05. Concentration of NO was determined according to [23].

[7] = tested on: HT-1080 (human fibrosarcoma); assay: Intracellular NO generation, HT-1080; type: cell-based; conditions: CV coloration
Method: as §1

MG-22A (mouse hepatoma) [8] = assay: Intracellular NO generation, MG-22A; type: cell-based; conditions: CV coloration
Method: as §1

[9] = dose 0.2 mmol/kgbw, intraperitoneally
[10] = soybean lipoxygenase, sodium linoleate 0.1 mmol, read-out: IC50 LOX
[11] = HT-1080, 50% cell killing, MTT coloration, 72 hours, read-out: LC50 HT-1080 MTT
[12] = HT-1080, 50% cell killing, crystal violet coloration, 72 hours, read-out: LC50 HT-1080 CV
[13] = 50% cell killing, MTT coloration, 72 hours, read-out: LC50 MG-22A MTT
[14] = 50% cell killing, crystal violet coloration, 72 hours, read-out: LC50 MG-22A CV
[15] = NIH 3T3 normal mouse fibroblasts
[16] = HT-1080, 72 h, read-out: LC50 HT-1080 MTT
[17] = 72 h, read-out: LC50 MG-22A MTT

In the case of `Cc1ncsc1CCO[Si](C)(C)C` [Compound 12, 4-methyl-5-(β-trimethylsiloxyethyl)-thiazole], the “% carrageenin mice paw edema inhibition (CPE%)” value [1, 9] was 24 ^** % and the “% inhibition LOX” value ([2]; soybean lipoxygenase) was 9.1%.
With `C[Si](C)(C)OCc1csc(N)n1` [Compound 14, 2-amino-4-trimethylsiloxymethyl-thiazole] the “% carrageenin mice paw edema inhibition (CPE%)” value ([1]; dose 0.013 mmol/kg, intraperitoneally) was 35.5 ^* % and the pIC50 [2, 10] was 4.00.
With `C[Si](C)(C)OCc1csc(-c2ccccc2)n1` [Compound 16, 2-phenyl-4-trimethylsilox-ymethyl-thiazole] the “% carrageenin mice paw edema inhibition (CPE%)” value [1, 9] was 47.6 ^* % and the pIC50 [2, 10] was 3.33.
For `O=C(CCN1CCC(O)CC1)Nc1nccs1` [Compound 10, 3-(4-hydroxypiperidin-1-yl)-N-(thiazol-2-yl)-propionamide], the LC50 human fibrosarcoma ([3]; HT-1080, coloration not stated, previously published data ref 17) is listed as 48 µg/mL (≈ 188 µM).
In the case of `COc1ccc2c(c1)c(CC(=O)O)c(C)n2C(=O)c1ccc(Cl)cc1` [Indomethacin, reference compound], the “% carrageenin mice paw edema inhibition (CPE%)” value ([1]; standard, dose 0.1 mmol/kgbw) was 57.4%.
In the case of `C[Si](C)(C)OC1CCN(CC(=O)Nc2nc(-c3ccccc3)cs2)CC1` [Compound 18, 2-(4-trimethylsiloxypiperidin-1-yl)-N-(4-phenylthiazol-2-yl)-acetamide], the “% inhibition LOX” value ([2]; soybean lipoxygenase) was 66.7%.
In the case of `C[Si](C)(C)CCC[n+]1ccsc1N.[I-]` [Compound 22, 2-amino-3-(γ-trimethylsilylpropyl)thiazolium iodide], the “% carrageenin mice paw edema inhibition (CPE%)” value ([1]; dose 0.01 mmol/kg, intraperitoneally) was 55.0% and 55.0 ^* % and the pIC50 [2, 10] was 3.34.
In the case of `COc1ccc(-c2csc(NC(=O)CN3CCC(O)CC3)n2)cc1` [Compound 8, 2-(4-hy-droxypiperidin-1-yl)-N-[4-(p-methoxyphenyl)-thiazol-2-yl]-acetamide], the CC50 [4, 11] was 100 µg/mL (≈ 288 µM), the CC50 [4, 12] was > 100 µg/mL and the CC50 (MG-22A (mouse hepatoma) [5]; [13]) was 16 µg/mL. The CC50 (MG-22A (mouse hepatoma) [5]; [14]) was 17 µg/mL, the CC50 at 72 h [6, 15] was > 100 µg/mL and the LD50 [6] was 1110 mg/kg. For the same compound, the “NO HT-1080 CV” value [7] was 8 and the “NO MG-22A CV” value (MG-22A (mouse hepatoma) [8]) was 75.
For `C[Si](C)(C)OC1CCN(CCC(=O)Nc2nccs2)CC1` [Compound 21, 3-(4-trimethylsiloxypiperidin-1-yl)-N-(thiazol-2-yl)-propionamide], the “% carrageenin mice paw edema inhibition (CPE%)” value [1, 9] is given as 57.2% and 57.2 ^* % and the LC50 human fibrosarcoma [3] is given as 44 µg/mL (≈ 134 µM).
For `C[Si](C)(C)OC1CCN(CC(=O)Nc2nccs2)CC1` [Compound 17, 2-(4-trimethylsiloxypiperidin-1-yl)-N-(thiazol-2-yl)-acetamide], the pIC50 [2] was 3.46, the “stimulation of HT-1080 cell growing” value [4] was “up to 55%” and the CC50 [4, 16] was > 100 µg/mL. The “LC50 HT-1080” value [4] was “do not exhibit cytotoxic properties; also recorded: inactive”, the “decrease of MG-22A cell growing” value (MG-22A (mouse hepatoma) [5]; MTT coloration) was “up to 40%” and the CC50 (MG-22A (mouse hepatoma) [5]; [17]) was > 100 µg/mL. The “LC50 MG-22A” value (MG-22A (mouse hepatoma) [5]) was “do not exhibit cytotoxic properties; also recorded: inactive”, the CC50 at 72 h [6] was > 100 µg/mL and the LD50 [6] was 2130 mg/kg. For the same compound, the “NO HT-1080 CV” value [7] was 11 and the “NO MG-22A CV” value (MG-22A (mouse hepatoma) [8]) was 23.
In the case of `O=C(CN1CCC(O)CC1)Nc1nccs1` [Compound 6, 2-(4-hydroxypiperidin-1-yl)-N-(thiazol-2-yl)-acetnamide], the “stimulation of HT-1080 cell growing” value [4] was “up to 55%”, the CC50 [4, 11] was > 100 µg/mL and the CC50 [4, 12] was > 100 µg/mL. The “LC50 HT-1080” value [4] was “do not exhibit cytotoxic properties”, the “decrease of MG-22A cell growing” value (MG-22A (mouse hepatoma) [5]; MTT coloration) was “up to 40%” and the CC50 (MG-22A (mouse hepatoma) [5]; [13]) was > 100 µg/mL. The CC50 (MG-22A (mouse hepatoma) [5]; [14]) was > 100 µg/mL, the “LC50 MG-22A” value (MG-22A (mouse hepatoma) [5]) was “do not exhibit cytotoxic properties” and the CC50 at 72 h [6, 15] was > 100 µg/mL. The LD50 [6] was > 2000 mg/kg, the “NO HT-1080 CV” value [7] was 4 and the “NO MG-22A CV” value (MG-22A (mouse hepatoma) [8]) was 6.
With `COc1ccc(-c2csc(NC(=O)CN3CCC(O[Si](C)(C)C)CC3)n2)cc1` [Compound 19, 2-(4-trimethylsilyloxypiperidin-1-yl)-N-[4-(p-methoxyphenyl)-thiazol-2-yl]-acetamide] the pIC50 [2] was 5.00, the CC50 [4, 16] was 100 µg/mL (≈ 238 µM) and the CC50 ([4]; HT-1080, read-out: LC50 HT-1080) was > 100 µg/mL. It also gave a CC50 (MG-22A (mouse hepatoma) [5]; 72 h, read-out: LC50 MG-22A CV) of 21 µg/mL, a CC50 (MG-22A (mouse hepatoma) [5]; [17]) of 13 µg/mL and a CC50 (MG-22A (mouse hepatoma) [5]; read-out: LC50 MG-22A) of 30 µM. For the same compound, the CC50 at 72 h [6] was 72 µg/mL (≈ 172 µM), the LD50 [6] was 839 mg/kg and the “NO HT-1080 CV” value [7] was 27. For the same compound, the “NO MG-22A CV” value (MG-22A (mouse hepatoma) [8]) was 122.
In the case of `CCCCCCCCCCCCCCc1sc(NC(=O)CN2CCC(O[Si](C)(C)C)CC2)nc1-c1ccccc1` [Compound 20, 2-(4-trimethylsiloxypiperidin-1-yl)-N-(4-phenyl-5-tetradecylthi-azol-2-yl)-acetamide], the “% carrageenin mice paw edema inhibition (CPE%)” value [1, 9] was 38.3 ^* %, the “lower lipoxygenase inhibiting properties in comparison with compound 18” value ([2]; difference of % inhibition at 0.1 mmol) was 26% and the “% inhibition LOX” value ([2]; soybean lipoxygenase) was 40.8%.
